Read-outs that look alike come from different tables or passages of the source.
What was measured:
α-glucosidase [1] = biological target: T1, α-glucosidase (Saccharomyces cerevisiae, UniProt P53341); assay: AGI kinetic analysis (Lineweaver–Burk plots); assay type: biochemical
Method: Four isocoumarins 1–4 and four flavonoids 5–8 were identified from the APE fraction, and AGI kinetic analyses were performed. During the reaction, α-glucosidase (0.76 unit/mL in 100-mmol phosphate buffer [pH 6.9]) activity was inhibited by the compounds (I) in the presence of the substrate (4-mmol p-nitrophenyl-α-D-glucopyranoside in 100-mmol phosphate buffer [pH 6.9]). The inhibition modes (competitive, uncompetitive, non-competitive, or mixed) of isocoumarins 1–4 and flavonoids 5–8 were examined using nonlinear regression Michaelis–Menten enzyme kinetics. The Lineweaver–Burk plot methods were used to determine kinetic parameters at increasing substrate and compound concentrations, and the parameters were calculated using a nonlinear regression program (Sigma Plot; SPCC Inc., Chicago, IL, USA). The obtained results represent three independent experiments.

α-glucosidase [2] = biological target: T1, α-glucosidase; details: has been reported; cited from earlier work

T1 sequence (P53341 whole entry): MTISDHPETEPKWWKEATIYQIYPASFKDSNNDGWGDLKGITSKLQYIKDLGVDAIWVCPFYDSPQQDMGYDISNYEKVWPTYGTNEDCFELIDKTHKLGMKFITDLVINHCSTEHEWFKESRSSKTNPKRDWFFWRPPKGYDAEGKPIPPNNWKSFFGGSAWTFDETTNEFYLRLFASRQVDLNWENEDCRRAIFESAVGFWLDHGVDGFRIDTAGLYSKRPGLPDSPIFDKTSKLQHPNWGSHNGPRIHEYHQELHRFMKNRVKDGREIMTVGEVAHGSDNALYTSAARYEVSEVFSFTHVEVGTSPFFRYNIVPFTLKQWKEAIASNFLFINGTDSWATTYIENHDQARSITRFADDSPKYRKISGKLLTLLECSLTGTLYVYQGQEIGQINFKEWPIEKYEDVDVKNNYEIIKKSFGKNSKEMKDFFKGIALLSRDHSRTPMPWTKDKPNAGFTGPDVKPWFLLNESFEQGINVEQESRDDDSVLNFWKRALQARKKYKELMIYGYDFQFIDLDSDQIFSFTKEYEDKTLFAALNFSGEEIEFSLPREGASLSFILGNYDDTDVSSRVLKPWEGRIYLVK

Compound | Inhibition Mode (α-glucosidase [1]) | Inhibition Mode (α-glucosidase [2])
COc1ccc(CCC2Cc3cc(O)cc(O)c3C(=O)O2)cc1 (stereo not drawn) [Compound 1, agrimonolide] | Non-competitive | –
O=C1OC(CCc2ccc(O)cc2)Cc2cc(O)cc(O)c21 (stereo not drawn) [Compound 3, desmethylagrimonolide] | Non-competitive | –
O=c1c(O)c(-c2ccc(O)c(O)c2)oc2cc(O)cc(O)c12 [Compound 6, quercetin] | – | competitive
